Earlier results as cited in US6863905B1, “Enhanced iodine treatment of drinking water” (Shanbrom Technologies, LLC, priority 2002, dated 2005).
Converted amounts (≈) assume the structure as drawn.

Conditions: at 20° C.

## II [iodine]
  solubility in water: 300 µg/mL (≈ 1180 µM)
